System: SD rat with neuropathic pain model induced by spared nerve injury (SNI)
Test: Neuropathic pain model induced by spared nerve injury
Assay type: in vivo
Settings: SNI SD rats, po BID, 60 mg/kg/day, 20 days

## NCC1(CC(=O)O)CCCCC1 [gabapentin]
  course of efficacy over the study: gradually reduced
